pIC50: −log10 of the molar value. Where “and” joins values, the source holds several entries; their conditions need not be identical. Equal values may be shown once.
Columns and labels:
[1] = biological target: T1, S2R (Homo sapiens, UniProt Q5BJF2); test: In vitro binding to S2R ([3H]ditolyl-guanidine, Jurkat cell membranes, CEREP); settings: membranes from Jurkat human leukemic T cells, 25 nM radioligand; read-out: IC50 for [3H]DTG binding (S2R / SIG-2R affinity)
T1 construct: 25 nM of [^3H]ditolyl-guanidine in membranes preparations from Jurkat human leukemic T cells; host or cells: Jurkat human leukemic T cells (membrane preparation)
Experimental: The assay was performed by CEREP (Celle l'Evescault, France) (study 100062023). SIG-1R binding was performed according to Ganapathy et al. (1999). Increasing drug concentrations (100 nM to 30 µM) were incubated with 15 nM of [^3H](+)-pentazocine in membranes preparations from Jurkat human leukemic T cells. Samples were incubated during 120 min at 37°C and nonspecific binding level was determined using 10 µM of haloperidol. S2R binding was performed according to Ganapathy et al. (1999). Increasing drug concentrations (100 nM to 30 µM) were incubated with 25 nM of [^3H]ditolyl-guanidine in membranes preparations from Jurkat human leukemic T cells. Samples were incubated during 60 min at room temperature and nonspecific binding level was determined using 10 µM of haloperidol. Assays were performed in duplicates and results were expressed as % of specific binding level.

[2] = biological target: T2, 5-HT3 receptor (Homo sapiens, UniProt P46098); test: CEREP in vitro binding assay (pharmacological profiling)
T2 construct: CEREP
T2 sequence (P46098 24-478): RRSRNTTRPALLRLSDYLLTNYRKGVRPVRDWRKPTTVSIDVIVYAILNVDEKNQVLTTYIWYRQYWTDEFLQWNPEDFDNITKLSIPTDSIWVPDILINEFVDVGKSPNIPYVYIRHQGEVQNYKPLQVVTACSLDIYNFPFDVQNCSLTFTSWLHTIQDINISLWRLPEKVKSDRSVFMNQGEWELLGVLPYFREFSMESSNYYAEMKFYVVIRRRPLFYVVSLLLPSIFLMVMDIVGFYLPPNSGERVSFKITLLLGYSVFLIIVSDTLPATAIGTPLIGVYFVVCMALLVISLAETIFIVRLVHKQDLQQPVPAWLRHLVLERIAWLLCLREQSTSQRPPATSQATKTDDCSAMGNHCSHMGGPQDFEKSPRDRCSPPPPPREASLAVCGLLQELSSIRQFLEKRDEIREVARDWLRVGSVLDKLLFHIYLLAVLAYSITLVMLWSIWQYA
Experimental: (§1) Table 1 represents pharmacological profiling of convolamine which was tested at […] and 1 µM in in vitro binding assays designed with appropriate reference compounds in duplicates at CEREP facility.

[3] = biological target: T3, CB2 receptors (Homo sapiens, UniProt P34972); test: as above; settings: at micromolar concentrations; range given jointly for CB2, Kv, 5-HT3
T3 construct: CEREP
Experimental: as §1

[4] = tested on: Kv channel; test: as above
[5] = tested on: panel of 47 receptors and ionophores; test: CEREP screen on a panel of 47 receptors and binding sites; settings: all targets except CB2 receptors, Kv channels, 5-HT3 and 5-HT1B receptors
Experimental: as §1

[6] = tested on: Wfs1^ΔExon8 mice; test: Spontaneous alternation in the Y-maze, Wolfram syndrome mouse model; assay type: in vivo; settings: 1 mg/Kg IP, 20 min before the Y-maze session
Experimental: (§2) The Y-maze is made of grey polyvinylchloride. Each arm is 40 cm long, 13 cm high, 3 cm wide at the bottom, 10 cm wide at the top, and converging at an equal angle. Each mouse was placed at the end of one arm and allowed to move freely through the maze during an 8 min session. The series of arm entries, including possible returns into the same arm, were checked visually. An alternation is defined as entries into all three arms on consecutive occasions. The number of maximum alternations is therefore the total number of arm entries minus two and the percentage of alternation was calculated as (actual alternations / maximum alternations) × 100 (Maurice et al., 1996; Meunier et al., 2006, 2013). Exclusion criteria are locomotion < 10 or percentage of alternation < 25% or > 90%. Animals showing these readouts are excluded from the calculations. Attrition is routinely < 5% in this test.

[7] = tested on: Wfs1^ΔExon8 mice; test: Step-through passive avoidance, Wolfram syndrome mouse model; assay type: in vivo; settings: IP 20 min before training, retention 24 h after training
Excerpt: The apparatus is a two-compartments (15 × 20 × 15 cm high) box with one illuminated with white polyvinylchloride walls and the other darkened with black polyvinylchloride walls and a grid floor. A guillotine door separates each compartment. A 60 W lamp positioned 40 cm above the apparatus lights up the white compartment during the experiment. Scrambled foot shocks (0.3 mA for 3 s) could be delivered to the grid floor using a shock generator scrambler (Lafayette Instruments, Lafayette, USA). The guillotine door was initially closed during the training session. Each mouse was placed into the white compartment. After 5 s, the door was raised. When the mouse entered the darkened compartment and placed all its paws on the grid floor, the door is closed and the foot shocks delivered for 3 s. The step-through latency (STL-Tg), that is, the latency spent to enter the darkened compartment, and the number of vocalizations were recorded. The retention test was carried out 24 h after training. Each mouse was placed again into the white compartment. After 5 s, the door was raised. The step-through latency (STL-R) was recorded up to 300 s (Meunier et al., 2006, 2013; Villard et al., 2009, 2011). An exclusion criteria was STL-Tg and STL-R < 10 s. Animals showing these readouts are excluded from the calculations. Attrition is routinely < 5% in this test.

[8] = tested on: Aβ25-35-induced learning impairments in mice; test: Spontaneous alternation in the Y-maze, Aβ25-35 model of Alzheimer's disease; assay type: in vivo; settings: 0.3-3 mg/kg IP, all doses, single administration on day 1, test on day 8
Experimental: Amyloid-β[25-35] peptide (Aβ25-35) was from Eurogentec (Angers, France). It was solubilized in distilled water at 3 mg/ml and stored at -20°C until use. Before injection, the peptide was incubated at 37°C for 4 days, allowing oligomerization. Control injection was performed with vehicle solution (distilled water), and intracerebroventricularly (ICV) injections were done as described previously (Maurice et al., 1996, 2019).
as §2, with “test. […]” for “test.”

[9] = at micromolar concentrations, range given jointly for CB2, Kv, 5-HT3

T1 sequence (Q5BJF2 whole entry): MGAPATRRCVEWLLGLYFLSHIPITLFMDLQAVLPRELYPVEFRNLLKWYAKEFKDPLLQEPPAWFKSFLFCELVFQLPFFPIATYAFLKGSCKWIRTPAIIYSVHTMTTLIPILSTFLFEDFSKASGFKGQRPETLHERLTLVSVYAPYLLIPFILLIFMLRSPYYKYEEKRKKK
T3 sequence (P34972 whole entry): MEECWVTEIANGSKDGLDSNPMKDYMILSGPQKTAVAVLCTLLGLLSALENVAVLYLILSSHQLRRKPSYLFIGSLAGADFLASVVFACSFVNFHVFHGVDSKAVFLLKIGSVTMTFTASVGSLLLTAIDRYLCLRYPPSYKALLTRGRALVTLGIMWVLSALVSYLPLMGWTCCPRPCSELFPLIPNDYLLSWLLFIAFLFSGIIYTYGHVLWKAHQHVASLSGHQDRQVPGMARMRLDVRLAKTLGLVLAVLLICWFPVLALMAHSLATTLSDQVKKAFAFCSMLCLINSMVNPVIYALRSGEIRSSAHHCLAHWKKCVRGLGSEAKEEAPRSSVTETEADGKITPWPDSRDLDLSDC

Question: With `COc1ccc(C(=O)OC2CC3CCC(C2)N3C)cc1OC` (stereo not shown) [Convolamine, (8-methyl-8-azabicyclo[3.2.1]octan-3-yl) 3,4-dimethoxybenzoate] as the compound, how does the pIC50 [1] read?
Answer: The pIC50 was 4.89 and ~4.89.

Question: And the inhibition at 0.1 µM ([2]; 0.1 µM, duplicates)?
Answer: The inhibition at 0.1 µM was 16.2%.

Question: And the inhibition at 1 µM ([2]; 1 µM, duplicates)?
Answer: The inhibition at 1 µM was 61.7%.

Question: And the “inhibition of binding on the 5-HT3 receptor (in words)” value ([2]; at 1 µM)?
Answer: Its value is “partial inhibition”.

Question: What about the “inhibitions of the selective radiotracer” value [2, 9] of the same compound?
Answer: The value was 20-60%.

Question: And the “inhibitions of the selective radiotracer” value [3]?
Answer: The value was 20-60%.

Question: What about the “inhibition at 0.1 µM” value ([4]; 0.1 µM, duplicates) of the same compound?
Answer: Its value is 30.4%.

Question: And the “inhibition at 1 µM” value ([4]; 1 µM, duplicates)?
Answer: Its value is 22.7%.

Question: What about the “inhibitions of the selective radiotracer” value [4, 9] of the same compound?
Answer: Its value is 20-60%.

Question: What about the “activity on the panel of 47 receptors and ionophores (in words)” value [5] of the same compound?
Answer: Its value is “inactive”.

Question: And the “alteration of spontaneous alternation (in words)” value [6]?
Answer: Its value is “significantly attenuated”.

Question: What about the “step-through latency deficit during retention (in words)” value [7] of the same compound?
Answer: Its value is “attenuated the deficit”.

Question: And the “Aβ25-35-induced deficit in spontaneous alternation (in words)” value [8]?
Answer: The value was “significantly attenuated”.
